≈ marks a conversion by molar mass, not a printed value.
Experiments:
[1] = tested on: human mononuclear cells (MNC); assay: cells; format: cell-based
[2] = tested on: TPA/pyr induced acute ear inflammation; assay: TPA/pyr induced acute ear inflammation; format: in vivo, Swiss-Webster mice; conditions: topical 0.1% solution
Excerpt: The inflammatory responses occur in three distinct phases, each apparently mediated by different mechanisms: an acute one characterized by local vasodilatation and increased capillary permeability, a subacute phase characterized by infiltration of leukocyte and phagocytic cells and a chronic proliferative phase, in which tissue degeneration and fibrosis occur. Acute inflammation generated by TPA (12-o-tetradecanoylforbolacetat/pyridine) induces an acute inflammatory reaction consisting of erythema, edema and polymorphonuclear leukocyte (PMN) infiltration The mechanism of anti-inflammatory mode of action of di-rhamnolipid BAC-3 is unknown. So far, it has been shown that Pseudomonas di-rhamnolipids stimulate, both chemotaxis and chemokinesis of leukocytes). In vitro studies examining the effects of pulmonary surfactant containing hydrophobic apopoproteins on human neutrophils have the important role of the protein component of the surfactant in enhancing the leukocyte chemotaxis, opsonizing bacteria, enhancing macrophage function, and stimulating antibody production. […] Correspondingly, it has been recognized that glycolipids (biosurfactants) through their virtue of hidrophilic head bind to proteins, i.e. receptors on cell membranes. […] It has been proposed that rhamnolipid increased the early recruitment of inflammatory cells to the site of inflammation without triggering a persistent, abnormal accumulation of neutrophils.
In the experiment it was proven that rhamnolipd (BAC-3) at concentration (1 mg/ml^−1, 0.1% w/v) was effective as a topical therapeutic anti-inflammatory agent in the TPA/pyr model of acute dermal ear inflammation in female Swiss-Webster mice over a time-course of 24 hours. The time of maximal reduction of inflammation was dependent on the time of treatment, with respect to induction.
Post treatment with BAC-3 two hour after inflammation reversed established inflammation with maximal effect after 11 hours. (32% lower inflammation in comparison with control). […]

[3] = tested on: Normal human fibroblasts derived from foreskin; assay: Collagen synthesis and total protein synthesis by human fibroblasts in vitro; format: cell-based
Experimental: a) Neonatal human fibroblast culture was established from a sample of neonatal human foreskin obtained by circumcision. After removal of subcutaneous tissue by dissection, the sample was desegregated by trypsinization with 0.25% trypsin and 1 mM EDTA solution (Gibco). Released cells were propagated in 100 mm plastic tissue culture dishes (Corning) in incubator at 37° C. saturated with 5% CO2. The medium, changed twice weekly, was a mixture of 0.2 mg/ml calcium, 4500 mg/l glucose in Dulbecco's modified Eagle's medium (DMEM, Gibco) supplemented with 10% fetal bovine serum FBS (Gemini-Bio-Products), 0.292 mg/ml L-glutamine (Gibco) and antibiotic-antimycotic solution containing 100 U penicillin-G/ml, 100 mcg/ml streptomycin and 0.25 mcg/ml fungizione in normal saline (Gemini-Bio-Products). Primary culture cells were trypsinized. To achieve enough cells of the same passage, the cells were replanted two times during two weeks and transplanted in bigger dishes before incubation started. At density 5×10^5 NHK 98-009 of fibroblasts of passage 4 was transplanted in Petri dishes in DMEM medium. When cells achieved ca 50% of confluence they were treated with solutions of BAC-3 with 0; 1; 10; 100; 250; and 500 μg/ml and 50 μg/ml of ascorbic acid (Sigma). All solutions were filtrated through 0.2 μm filters (Fisher). The media with or without BAC-3 were changed once after two days. 100 μg of ascorbic acid were added each day in media until achieving final concentration of 50 μg/ml of ascorbic acid in each of Petri dishes. […]
Normal human fibroblasts derived from foreskin were cultured in T-25 flasks and were treated with BAC-3 at concentrations of 1 μg/ml, 10 μg/ml, and 100 μg/ml in the way previously described. […] One half of the sonicate was hydrolyzed in 6N HCl; hydroxyproline was measured in the hydrolisate to determine collagen synthesis. […] Total collagen per flask was determined multiplying the hydroxiproline value by 7.8. […]

[4] = biological target: T1, Guinea pig lung LTC4 synthase (Cavia porcellus, UniProt A6XA80); assay: Leukotriene C4 synthase inhibition (EIA); format: biochemical; conditions: highest concentration (1,000 μM/ml); solvent DMSO
T1 construct: Guinea pig lung LTC4 synthase was used; from tissue; host or cells: guinea pig lung
T1 sequence (A6XA80 1-150): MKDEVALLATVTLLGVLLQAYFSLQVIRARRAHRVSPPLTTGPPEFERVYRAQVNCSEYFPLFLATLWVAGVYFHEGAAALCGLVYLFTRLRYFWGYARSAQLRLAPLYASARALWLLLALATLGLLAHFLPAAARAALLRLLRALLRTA
Experimental: Leukotriene C4 (LTC4) synthase is crucial in the formation of LTC4 from LTA4. Taken together with other assays for enzymes involved in the lipoxygenase pathway (e.g. 5-lipoxygenase, LTA4 hydrolase), a locus of action can be established, mechanism of agents' activities which inhibit the formation of the leukotrienes.
Guinea pig lung LTC4 synthase was used. Test compound and/or vehicle was preincubated with 180 μg/ml enzyme dissolved in phosphate buffer pH 7.8 for 15 minutes at 37° C. The reaction was initiated by addition of 2.5 μg/ml LTA4 methyl ester for another 30 minute incubation period and terminated by further addition of ice-cold methanol. Determination of the amount of LTC4 formed was read spectrophotometrically by enzyme immunoassay kit (EIA). Compounds was tested at the concentrations of 1,000; 100; 10; and 1 μM/ml. The used solvent was DMSO.

[5] = Preservation of structure during 10 years after production; format: physicochemical; conditions: under nitrogen N2 in glass bottles at room temperature
Excerpt: On the figure has been shown the purity of the rhamnolipid BAC-3 (FIG. 10) and mass spectrum (FIG. 11) ten years after production. The production of the rhamnolipid BAC-3 purity>98.5 is very expensive procedure. Therefore one of the most important task of rhamnolipid BAC-3 production is achieving clinically acceptable purity without using HPLC-MS equipment, except for control purposes of the purity and mass spectrum.

[6] = tested on: DNCB induced delayed type hypersensitivity reactions; assay: Delayed type hypersensitivity (DTH) in DNCB sensitised nude guinea pigs; format: in vivo, nude guinea pig; conditions: topical twice daily during 7 days; by day 7; preliminary data
Experimental: The nude guinea pig is used as test animal because of different animal skins, nude guinea pig skin is claimed to be the one closest resembling human skin. […] In DNCB sensitised guinea pigs delayed type hypersensitivity reactions were induced with patches soaked with 0.25% (w/v) DNCB in ethanol/propylene glycol kept on the animals back for 24 hours. The test sites were treated twice daily during 7 days with: Dovonex (commercially available ointment with calcipotriene; 1% (w/w) BAC-3 in US petrolatum. Locobasis (commercially available ointment, identical as carrier for steroids; 1% (w/w) non purified BAC-3 (86%) in US petrolatum; US petrolatum; Preferid (commercially available steroid).

SMILES | inhibition of MNC proliferation with SEB as stimulus [1] | proliferation of MNC as response to different stimulants [1] | IC50 ([1]; Homo sapiens, PHA at 1 μg/ml, printed 'at the concentration of 5 μg/ml', read-out: IC50, inhibition of MNC proliferation in response to PHA) | decrease of inflammation vs control ear, pre-treatment ([2]; single dose 1 hour before TPA/pyr) | lower inflammation vs control, post treatment ([2]; two hours after induction, maximal effect after 11 hours) | inhibition of inflammation vs control ear, concurrent treatment ([2]; with TPA/pyr induction, at 6 hours) | percent of protein synthesis dedicated to collagen synthesis ([3]; 1, 10, 100 μg/ml, harvested day 4 and day 7, vs control cells, p<0.05 ANOVA) | total collagen synthesis per flask ([3]; treated as in example 6, FIG. 9 (2a)) | overall protein synthesis per flask ([3]; treated as in example 6, FIG. 9 (2b)) | inhibition at 1000 µM [4] | structure after storage [5] | state of DTH test area [6]
CCCCCCCC(CC(=O)O)OC(=O)CC(CCCCCCC)OC1OC(C)C(O)C(O)C1OC1OC(C)C(O)C(O)C1O (stereo not shown) [BAC-3] | almost no inhibition | inhibited proliferation | 35 µg/mL (≈ 53.8 µM) | 15% | 32% | about 32% | significantly reduced | decreases synthesis of collagen | increase in overall synthesis | 81% | did not change its structure | almost healed with only a slight erythema present
C=C1/C(=C\C=C2/CCC[C@]3(C)[C@@H]([C@H](C)/C=C/[C@@H](O)C4CC4)CC[C@@H]23)C[C@@H](O)C[C@@H]1O [calcipotriene, reference compound] | – | – | – | – | – | – | – | – | – | – | – | almost healed with only a slight erythema present
